In patent publication US10329294B2, “Pyrazolopyrimidine inhibitors of IRAK4 activity” (MERCK SHARP & DOHME CORP., priority 2015, dated 2019):
Structures can show the parent of a compound that is named as a salt.

molecular target: IRAK4 (Homo sapiens (Human), UniProt Q9NWZ3); test: IRAK4 Kinase Assay; assay type: biochemical; details: IMAP fluorescence polarization, 0.5 nM GST tagged IRAK4, 100 μM ATP, 30 minutes at 25° C.; read-out: IRAK4 IC50
Sequence (Q9NWZ3 whole entry): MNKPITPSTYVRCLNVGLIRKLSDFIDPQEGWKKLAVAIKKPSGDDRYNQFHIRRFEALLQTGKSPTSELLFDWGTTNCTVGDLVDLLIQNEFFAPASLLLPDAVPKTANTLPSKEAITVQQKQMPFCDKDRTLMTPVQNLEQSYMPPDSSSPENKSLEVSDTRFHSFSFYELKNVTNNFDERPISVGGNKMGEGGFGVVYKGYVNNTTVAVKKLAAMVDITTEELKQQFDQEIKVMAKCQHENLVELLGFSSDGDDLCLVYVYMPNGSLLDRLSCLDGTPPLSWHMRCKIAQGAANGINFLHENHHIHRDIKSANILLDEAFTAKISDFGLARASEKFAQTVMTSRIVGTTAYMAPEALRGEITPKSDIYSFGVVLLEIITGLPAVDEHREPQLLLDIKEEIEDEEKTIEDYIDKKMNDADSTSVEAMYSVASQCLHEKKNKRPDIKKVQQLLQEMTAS
Description: The kinase activity of IRAK4 is determined by its ability to catalyze the phosphorylation of a fluorescent polypeptide substrate. The extent of phosphorylation is measured using the IMAP technology (Molecular Devices) where the phosphorylated fluorescent substrate binds to the large M(III)-based nanoparticles which reduces the rotational speed of the substrate and thus increases its fluorescent polarization (FP).
20 μL reaction mixture contains 10 mM TriHCl, pH 7.2, 0.5 nM GST tagged IRAK4 (SignalChem), 100 nM fluorescent peptide substrate (RP7030, Molecular Devices), 100 μM ATP, 1 mM DDT, 1 mM MgCl2, and 0.01% Tween 20. The reaction is initiated by the addition of ATP. After incubation for 30 minutes at 25° C., 60 μL of Progressive IMAP Reagent (Molecular Devices) is added to stop the reaction. Change in RP7030's FP is determined by a FP reader (Analyst HT, LJL BioSystems).

Structure (SMILES) | IC50
O=C(Nc1cn(C(F)F)nc1C(F)(F)F)c1cnn2ccc(N3CCNCC3)nc12 [Example 300, N-[1-(difluoromethyl)-3-(trifluoromethyl)-1H-pyrazol-4-yl]-5-piperazin-1-ylpyrazolo[1,5-a]pyrimidine-3-carboxamide trifluoroacetate] | 55 nM
N[C@H]1CCCC[C@H]1Nc1ccn2ncc(C(=O)Nc3ccccc3Cl)c2n1 [Example 104, 5-{[(1R,2)S-2-aminocyclohexyl]amino}-N-(2-chlorophenyl)pyrazolo[1,5-a]pyrimidine-3-carboxamide trifluoroacetate] | 1 nM
N#Cc1cscc1NC(=O)c1cnn2ccc(N3CC4CCC3CN4)nc12 (stereo not drawn) [Example 145, N-(4-cyanothiophen-3-yl)-5-(2,5-diazabicyclo[2.2.2]oct-2-yl)pyrazolo[1,5-a]pyrimidine-3-carboxamide trifluoroacetate] | 165 nM
Cn1cc(NC(=O)c2cnn3ccc(N4CCNCC4(C)C)nc23)c(C(F)(F)F)n1 [Example 216, 5-(2,2-dimethylpiperazin-1-yl)-N-[1-methyl-3-(trifluoromethyl)-1H-pyrazol-4-yl]pyrazolo[1,5-a]pyrimidine-3-carboxamide trifluoroacetate] | 127 nM
Cn1cc(NC(=O)c2cnn3ccc(N4CCC[C@@H](O)C4)nc23)c(C(F)F)n1 [Example 25, N-[3-(difluoromethyl)-1-methyl-1H-pyrazol-4-yl]-5-[(3R)-3-hydroxypiperidin-1-yl]pyrazolo[1,5-a]pyrimidine-3-carboxamide] | 0.5 nM
Cn1cc(NC(=O)c2cnn3ccc(N[C@@H]4CCCC(F)(F)[C@@H]4N)nc23)c(C#N)n1 [Example 126, 5-{[(1R,2R)-2-amino-3,3-difluorocyclohexyl]amino}-N-(3-cyano-1-methyl-1H-pyrazol-4-yl)pyrazolo[1,5-a]pyrimidine-3-carboxamide trifluoroacetate] | 70 nM
N[C@@H]1[C@H](Nc2ccn3ncc(C(=O)Nc4ccsc4Br)c3n2)CCCC1(F)F [Example 128, 5-{[(1R,2R)-2-amino-3,3-difluorocyclohexyl]amino}-N-(2-bromothiophen-3-yl)pyrazolo[1,5-a]pyrimidine-3-carboxamide trifluoroacetate] | 1240 nM
N#Cc1sccc1NC(=O)c1cnn2ccc(N[C@@H]3CCCC[C@@H]3O)nc12 [Example 187, N-(2-cyanothiophen-3-yl)-5-{[(1R,2S)-2-hydroxycyclohexyl]amino} pyrazolo[1,5-a]pyrimidine-3-carboxamide] | 250 nM
O=C(Nc1ccsc1Cl)c1cnn2ccc(N[C@@H]3CCCC[C@@H]3O)nc12 [Example 185, N-(2-chlorothiophen-3-yl)-5-{[(1R,2S)-2-hydroxycyclohexyl]amino} pyrazolo[1,5-a]pyrimidine-3-carboxamide] | 1580 nM
N[C@H]1CCCC[C@H]1Nc1ccn2ncc(C(=O)Nc3cscc3Br)c2n1 [Example 76, 5-{[(1R,2S)-2-aminocyclohexyl]amino}-N-(4-bromothiophen-3-yl)pyrazolo[1,5-a]pyrimidine-3-carboxamide trifluoroacetate] | 0.9 nM
Cn1cc(NC(=O)c2cnn3ccc(N[C@H]4CNCC[C@@H]4F)nc23)c(C(F)(F)F)n1 (single isomer, unassigned) [Example 233, 5-{[(3R,4R)- or (3S,4S)-4-fluoropiperidin-3-yl]amino}-N-[1-methyl-3-(trifluoromethyl)-1H-pyrazol-4-yl]pyrazolo[1,5-a]pyrimidine-3-carboxamide] | 0.5 nM
N#Cc1ccccc1NC(=O)c1cnn2ccc(N3CC4CCC3CN4)nc12 (stereo not drawn) [Example 271, N-(2-cyanophenyl)-5-(2,5-diazabicyclo[2.2.2]oct-2-yl)pyrazolo[1,5-a]pyrimidine-3-carboxamide trifluoroacetate] | 403 nM
Cn1cc(NC(=O)c2cnn3ccc(N[C@@H]4CNCC[C@H]4F)nc23)c(C(F)(F)F)n1 (single isomer, unassigned) [Example 232, 5-{[(3R,4R)- or (3S,4S)-4-fluoropiperidin-3-yl]amino}-N-[1-methyl-3-(trifluoromethyl)-1H-pyrazol-4-yl]pyrazolo[1,5-a]pyrimidine-3-carboxamide] | 13 nM
Cn1cc(NC(=O)c2cnn3ccc(N[C@H]4CCCCC[C@H]4N)nc23)c(C(F)(F)F)n1 (single isomer, unassigned) [Example 55, 5-{[(1R,2S)- or (1S,2R)-2-aminocycloheptyl]amino}-N-[1-methyl-3-(trifluoromethyl)-1H-pyrazol-4-yl]pyrazolo[1,5-a]pyrimidine-3-carboxamide] | 8 nM
N#Cc1ccccc1NC(=O)c1cnn2ccc(NC3CCCCNC3)nc12 (stereo not drawn) [Example 272, 5-(azepan-3-ylamino)-N-(2-cyanophenyl)pyrazolo[1,5-a]pyrimidine-3-carboxamide trifluoroacetate] | 57 nM
N[C@H]1CCCC[C@H]1Nc1ccn2ncc(C(=O)Nc3csc(CO)c3)c2n1 [Example 275, 5-(((1R,2S)-2-Aminocyclohexyl)amino)-N-(5-(hydroxymethyl)thiophen-3-yl)pyrazolo[1,5-a]pyrimidine-3-carboxamide] | 17 nM
N[C@@H]1[C@H](Nc2ccn3ncc(C(=O)Nc4ccsc4Cl)c3n2)CCCC1(F)F [Example 118, 5-{[(1R,2R)-2-amino-3,3-difluorocyclohexyl]amino}-N-(2-chlorothiophen-3-yl)pyrazolo[1,5-a]pyrimidine-3-carboxamide trifluoroacetate] | 342 nM
Cn1cc(NC(=O)c2cnn3ccc(N4C[C@H](N)C[C@@H](F)C4)nc23)c(C(F)F)n1 [Example 253, 5-[(3R,5R)-3-amino-5-fluoropiperidin-1-yl]-N-[3-(difluoromethyl)-1-methyl-1H-pyrazol-4-yl]pyrazolo[1,5-a]pyrimidine-3-carboxamide trifluoroacetate] | 0.5 nM
Cn1cc(NC(=O)c2cnn3ccc(N[C@@H]4CNCC(F)(F)C4)nc23)c(C(F)(F)F)n1 (single isomer, unassigned) [Example 218, 5-{[(3S)- or (3R)-5,5-difluoropiperidin-3-yl]amino}-N-[1-methyl-3-(trifluoromethyl)-1H-pyrazol-4-yl]pyrazolo[1,5-a]pyrimidine-3-carboxamide] | 685 nM
Cn1cc(NC(=O)c2cnn3ccc(NC4CNCCC4F)nc23)c(C(F)F)n1 (single isomer, unassigned) [Example 241, N-[3-(difluoromethyl)-1-methyl-1H-pyrazol-4-yl]-5-[(3R or S, 4R or S-4-fluoropiperidin-3-yl)amino]pyrazolo[1,5-a]pyrimidine-3-carboxamide] | 3 nM
Cn1cc(NC(=O)c2cnn3ccc(N4C[C@@H](O)C[C@H](O)C4)nc23)c(C(F)(F)F)n1 [Example 21, 5-[(3S,5S)-3,5-dihydroxypiperidin-1-yl]-N-[1-methyl-3-(trifluoromethyl)-1H-pyrazol-4-yl]pyrazolo[1,5-a]pyrimidine-3-carboxamide] | 20 nM
C[C@@H]1CN[C@@H](C)CN1c1ccn2ncc(C(=O)Nc3cn(C)nc3C(F)(F)F)c2n1 (relative stereo) [Example 93, 5-[trans-2,5-dimethylpiperazin-1-yl]-N-[1-methyl-3-(trifluoromethyl)-1H-pyrazol-4-yl]pyrazolo[1,5-a]pyrimidine-3-carboxamide trifluoroacetate] | 30 nM
N[C@@H]1[C@H](Nc2ccn3ncc(C(=O)Nc4ccsc4C(F)F)c3n2)CCCC1(F)F [Example 170, 5-{[(1R,2R)-2-amino-3,3-difluorocyclohexyl]amino}-N-[2-(difluoromethyl)thiophen-3-yl]pyrazolo[1,5-a]pyrimidine-3-carboxamide] | 560 nM
N#Cc1sccc1NC(=O)c1cnn2ccc(N[C@@H]3CCCC(F)(F)[C@@H]3N)nc12 [Example 133, 5-{[(1R,2R)-2-amino-3,3-difluorocyclohexyl]amino}-N-(2-cyanothiophen-3-yl)pyrazolo[1,5-a]pyrimidine-3-carboxamide trifluoroacetate] | 95 nM
Cn1cc(NC(=O)c2cnn3ccc(N4C[C@H]5CN[C@H](C5)C4)nc23)c(C(F)F)n1 (single isomer, unassigned) [Example 184, 5-[(1S,5S)- or (1R,5R)-3,6-diazabicyclo[3.2.1]oct-3-yl]-N-[3-(difluoromethyl)-1-methyl-1H-pyrazol-4-yl]pyrazolo[1,5-a]pyrimidine-3-carboxamide trifluoroacetate] | 47 nM
Cn1cc(NC(=O)c2cnn3ccc(N4C[C@@H]5CN[C@@H](C5)C4)nc23)c(C(F)F)n1 (single isomer, unassigned) [Example 183, 5-[(1S,5S)- or (1R,5R)-3,6-diazabicyclo[3.2.1]oct-3-yl]-N-[3-(difluoromethyl)-1-methyl-1H-pyrazol-4-yl]pyrazolo[1,5-a]pyrimidine-3-carboxamide trifluoroacetate] | 6 nM
O=C(Nc1ccccc1C(F)F)c1cnn2ccc(N3CC4CCC3CN4)nc12 (stereo not drawn) [Example 146, 5-(2,5-diazabicyclo[2.2.2]oct-2-yl)-N-[2-(difluoromethyl)phenyl] pyrazolo[1,5-a]pyrimidine-3-carboxamide trifluoroacetate] | 1460 nM
Cn1cc(NC(=O)c2cnn3ccc(N4CCNC(C(F)(F)F)C4)nc23)c(C(F)(F)F)n1 (stereo not drawn) [Example 15, N-[1-methyl-3-(trifluoromethyl)-1H-pyrazol-4-yl]-5-(3-(trifluoromethyl)piperazin-1-yl]pyrazolo[1,5-a]pyrimidine-3-carboxamide] | 113 nM
CC(C)n1cc(NC(=O)c2cnn3ccc(N[C@@H]4CCCC[C@@H]4O)nc23)c(C(F)F)n1 [Example 199, N-[3-(difluoromethyl)-1-(1-methylethyl)-1H-pyrazol-4-yl]-5-{[(1R,2S)-2-hydroxycyclohexyl]amino} pyrazolo[1,5-a]pyrimidine-3-carboxamide] | 9 nM
Cn1cc(NC(=O)c2cnn3ccc(N[C@@H]4CNC[C@@H](F)C4)nc23)c(C(F)F)n1 [Example 256, N-[3-(difluoromethyl)-1-methyl-1H-pyrazol-4-yl]-5-{[(3S,5S)-5-fluoropiperidin-3-yl]amino}pyrazolo[1,5-a]pyrimidine-3-carboxamide] | 8 nM
